Laboratory results from publication PMC8980701 (Neuropharmacology, 2020).
Where a name gives a salt, the structure may show the parent alone.

What was measured:
Assay type in all cases: in vivo, male Sprague-Dawley rats
[1] = system: cocaine self-administration; test: Cocaine self-administration; conditions: for Active Lever Presses / Inactive Lever Presses: cocaine 0.25 mg/kg/inf, mean ± SEM
[2] = Pharmacokinetics in plasma after single s.c. dose, alone or in combination; conditions: for half-life: t1/2; for concentration at 0 h / concentration at 15 min / concentration at 30 min / concentration at 60 min / concentration at 120 min / concentration at 180 min / concentration at 240 min / concentration at 360 min: Plasma concentration
cocaine-seeking behavior = test: Cocaine-seeking behavior test
[3] = lorcaserin 0.5 mg/kg s.c., 15 min pretreatment
[4] = lorcaserin 1 mg/kg s.c., 15 min pretreatment
[5] = rat plasma, single dose 0.5 mg/kg s.c., drug alone, mean ± SEM
[6] = rat plasma, single dose 1 mg/kg s.c., drug alone, mean ± SEM
[7] = rat plasma, single dose 3 mg/kg s.c., drug alone, mean ± SEM
[8] = pimavanserin 3 mg/kg s.c., 30 min pretreatment
[9] = male, Sprague-Dawley, rat, in vivo, sc, 0.5 mg/kg
[10] = male, Sprague-Dawley, rat, in vivo, sc, 1 mg/kg
[11] = male, Sprague-Dawley, rat, in vivo, sc, 3 mg/kg
[12] = male, Sprague-Dawley, rat, in vivo, sc, 10 mg/kg

In the case of C[C@H]1CNCCc2ccc(Cl)cc21 [Lorcaserin, (1R)-8-chloro-2,3,4,5-tetrahydro-1-methyl-1H-3-benzazepine], the “Effect on cocaine intake (infusions)” value ([1]; acute lorcaserin 1 mg/kg, vs. control, p < 0.05, Fig. 1B) is reported as “suppressed cocaine intake”, the “Active Lever Presses” value [1, 3] is reported as 536.23 ± 16.03 and the “Inactive Lever Presses” value [1, 3] is reported as 2.08 ± 0.40. The “Active Lever Presses” value [1, 4] was 492.46 ± 18.99, the “Inactive Lever Presses” value [1, 4] was 3.00 ± 0.91 and the AUCExtrap [2, 5] was 12.68 ± 2.45%. The λ [2, 5] was 0.31 ± 0.03 h⁻¹, the AUCExtrap [2, 6] was 8.06 ± 0.47% and the λ [2, 6] was 0.39 ± 0.02 h⁻¹. The AUCExtrap [2, 7] was 7.97 ± 0.50%, the λ [2, 7] was 0.38 ± 0.01 h⁻¹ and the “Increase of latency to the first response vs. control” value (cocaine-seeking behavior; acute lorcaserin 1 mg/kg) was ~ 6.7 fold. For the same molecule, the “Decrease of cue-reinforced lever presses vs. control” value (“Decrease” below) (cocaine-seeking behavior; acute lorcaserin 1 mg/kg, FA day 10, p < 0.05) was ~ 64.4%, the “Suppression of inactive lever presses vs. control” value (cocaine-seeking behavior; acute lorcaserin 1 mg/kg, p < 0.05) was ~ 64.6% and the “Latency to the first response” value (cocaine-seeking behavior; acute lorcaserin 1 mg/kg, p < 0.05 vs. control (14.39 ± 2.41 s)) was 95.83 ± 35.78 s. The “Suppression of inactive lever presses vs. control” value (cocaine-seeking behavior; repeated lorcaserin 1 mg/kg) was “n.s”, the “Decrease” value (cocaine-seeking behavior; repeated lorcaserin 1 mg/kg twice daily for 10 days, FA day 10, p < 0.05) was ~ 36.4% and the “Latency to the first response” value (cocaine-seeking behavior; repeated lorcaserin 1 mg/kg, n.s. vs. control (14.39 ± 2.41 s)) was 30.15 ± 5.52 s.

For Cc1cc2c(cc1Cl)N(C(=O)Nc1ccc(Oc3cccnc3C)nc1)CC2 [SB242084, 6-chloro-5-methyl-1-[[2-(2-methylpyrid-3-yloxy)pyrid-5-yl]carbamoyl] indolinedihydrochloride], the “Effect on lorcaserin-evoked suppression of cocaine intake” value ([1]; SB242084 0.5 mg/kg i.p. plus lorcaserin 1 mg/kg, p < 0.05, Fig. 1B) was “prevented this lorcaserin-evoked suppression of cocaine intake”.

In the case of CC(C)COc1ccc(CNC(=O)N(Cc2ccc(F)cc2)C2CCN(C)CC2)cc1 [Pimavanserin], the “Effect on cocaine infusions” value ([1]; acute pimavanserin 0.3, 1, 3 mg/kg, vs. control, Fig. 1A) is reported as “No main effect”, the “Active Lever Presses” value [1, 8] is reported as 523.00 ± 54.57 and the “Inactive Lever Presses” value [1, 8] is reported as 3.44 ± 1.74. For the same molecule, the AUC0-inf [2, 9] was 15.02 ± 0.32 ng·h/mL, the AUC0-t [2, 9] was 14.40 ± 0.31 ng·h/mL and the AUCExtrap [2, 9] was 3.89 ± 1.42%. The Cl/F [2, 9] was 556.7 ± 12.2 mL/min/kg, the Cmax [2, 9] was 12.17 ± 0.38 ng/mL and the “Half-life, t1/2” value [2, 9] was 77.4 ± 27 min. The Tmax [2, 9] was 17.4 ± 2.4 min, the λ [2, 9] was 0.76 ± 0.14 h⁻¹ and the Plasma concentration ([2]; male, Sprague-Dawley, rat, in vivo, sc, 0.5 mg/kg, 0 h) was 0.08 ± 0.05 ng/mL. For the same molecule, the Plasma concentration ([2]; male, Sprague-Dawley, rat, in vivo, sc, 0.5 mg/kg, 15 min) was 12.15 ± 0.39 ng/mL, the Plasma concentration ([2]; male, Sprague-Dawley, rat, in vivo, sc, 0.5 mg/kg, 30 min) was 9.93 ± 0.50 ng/mL and the Plasma concentration ([2]; male, Sprague-Dawley, rat, in vivo, sc, 0.5 mg/kg, 60 min) was 5.40 ± 0.23 ng/mL. For the same molecule, the Plasma concentration ([2]; male, Sprague-Dawley, rat, in vivo, sc, 0.5 mg/kg, 120 min) was 2.09 ± 0.13 ng/mL, the Plasma concentration ([2]; male, Sprague-Dawley, rat, in vivo, sc, 0.5 mg/kg, 180 min) was 0.86 ± 0.11 ng/mL and the Plasma concentration ([2]; male, Sprague-Dawley, rat, in vivo, sc, 0.5 mg/kg, 240 min) was 0.45 ± 0.10 ng/mL. It also gave a Plasma concentration ([2]; male, Sprague-Dawley, rat, in vivo, sc, 0.5 mg/kg, 360 min) of 0.13 ± 0.06 ng/mL, an AUC0-inf [2, 10] of 41.72 ± 2.7 ng·h/mL and an AUC0-t [2, 10] of 41.27 ± 2.64 ng·h/mL. The AUCExtrap [2, 10] was 1.09 ± 0.28%, the Cl/F [2, 10] was 409.2 ± 30.2 mL/min/kg and the Cmax [2, 10] was 30.13 ± 2.17 ng/mL. For the same molecule, the “Half-life, t1/2” value [2, 10] was 53.4 ± 3 min, the λ [2, 10] was 0.79 ± 0.04 h⁻¹ and the Plasma concentration ([2]; male, Sprague-Dawley, rat, in vivo, sc, 1 mg/kg, 0 h) was 0.05 ± 0.03 ng/mL. The Plasma concentration ([2]; male, Sprague-Dawley, rat, in vivo, sc, 1 mg/kg, 15 min) was 30.13 ± 2.17 ng/mL, the Plasma concentration ([2]; male, Sprague-Dawley, rat, in vivo, sc, 1 mg/kg, 30 min) was 24.50 ± 1.59 ng/mL and the Plasma concentration ([2]; male, Sprague-Dawley, rat, in vivo, sc, 1 mg/kg, 60 min) was 16.8 ± 1.02 ng/mL. For the same molecule, the Plasma concentration ([2]; male, Sprague-Dawley, rat, in vivo, sc, 1 mg/kg, 120 min) was 6.34 ± 0.39 ng/mL, the Plasma concentration ([2]; male, Sprague-Dawley, rat, in vivo, sc, 1 mg/kg, 180 min) was 3.55 ± 0.81 ng/mL and the Plasma concentration ([2]; male, Sprague-Dawley, rat, in vivo, sc, 1 mg/kg, 240 min) was 1.12 ± 0.14 ng/mL. For the same molecule, the Plasma concentration ([2]; male, Sprague-Dawley, rat, in vivo, sc, 1 mg/kg, 360 min) was 0.35 ± 0.08 ng/mL, the AUCExtrap [2, 11] was 4.26 ± 0.68% and the λ [2, 11] was 0.59 ± 0.03 h⁻¹. The AUC0-inf ([2]; male, Sprague-Dawley, rat, in vivo, sc, 3 mg/kg, AUC0-inf) was 198 ± 8.33 ng·h/mL, the AUC0-t ([2]; male, Sprague-Dawley, rat, in vivo, sc, 3 mg/kg, AUC0-t) was 189 ± 7.75 ng·h/mL and the Cmax ([2]; male, Sprague-Dawley, rat, in vivo, sc, 3 mg/kg, CMAX) was 79.5 ± 3.76 ng/mL. The CL/F [2, 11] was 255 mL/min/kg, the half-life ([2]; male, Sprague-Dawley, rat, in vivo, sc, 3 mg/kg, Half-life) was 70.8 ± 3 min and the concentration at 0 h [2, 11] was 0.02 ± 0.02 ng/mL. It also gave a concentration at 15 min [2, 11] of 71.1 ± 5.89 ng/mL, a concentration at 30 min [2, 11] of 74.5 ± 5.1 ng/mL and a concentration at 60 min [2, 11] of 63.4 ± 3.59 ng/mL. For the same molecule, the concentration at 120 min [2, 11] was 39.8 ± 2.4 ng/mL, the concentration at 180 min [2, 11] was 27.8 ± 2.37 ng/mL and the concentration at 240 min [2, 11] was 15.7 ± 1.48 ng/mL. It also gave a concentration at 360 min [2, 11] of 4.85 ± 0.62 ng/mL, a Tmax ([2]; male, Sprague-Dawley, rat, in vivo, sc, 3 mg/kg, TMAX) of 22.8 ± 3.6 min and an AUCExtrap [2, 12] of 32.22 ± 4.18%. For the same molecule, the λ [2, 12] was 0.21 ± 0.02 h⁻¹, the AUC0-inf ([2]; male, Sprague-Dawley, rat, in vivo, sc, 10 mg/kg, AUC0-inf) was 1290 ± 112 ng·h/mL and the AUC0-t ([2]; male, Sprague-Dawley, rat, in vivo, sc, 10 mg/kg, AUC0-t) was 858 ± 54.7 ng·h/mL. For the same molecule, the Cmax ([2]; male, Sprague-Dawley, rat, in vivo, sc, 10 mg/kg, CMAX) was 213 ± 15.9 ng/mL, the CL/F [2, 12] was 135 mL/min/kg and the half-life ([2]; male, Sprague-Dawley, rat, in vivo, sc, 10 mg/kg, Half-life) was 218 ± 32.4 min. For the same molecule, the concentration at 0 h [2, 12] was 0.09 ± 0.41 ng/mL, the concentration at 15 min [2, 12] was 170 ± 18.8 ng/mL and the concentration at 30 min [2, 12] was 190 ± 19.9 ng/mL. For the same molecule, the concentration at 60 min [2, 12] was 208 ± 15.6 ng/mL, the concentration at 120 min [2, 12] was 179 ± 11.6 ng/mL and the concentration at 180 min [2, 12] was 154 ± 15.1 ng/mL. It also gave a concentration at 240 min [2, 12] of 116 ± 7.99 ng/mL, a concentration at 360 min [2, 12] of 79.9 ± 6.24 ng/mL and a Tmax ([2]; male, Sprague-Dawley, rat, in vivo, sc, 10 mg/kg, TMAX) of 57.6 ± 15 min. The Tmax ([2]; male, Sprague-Dawley, rat, in vivo, sc, TMAX) was 15 to 60 min, the half-life ([2]; male, Sprague-Dawley, rat, in vivo, sc) was 53 to 218 min and the “Effect on inactive lever presses” value (cocaine-seeking behavior; acute and repeated pimavanserin 3 mg/kg, FA day 10) was “No main effect”. The “Decrease” value (cocaine-seeking behavior; acute pimavanserin 3 mg/kg, FA day 10, p < 0.05) was ~ 41.4%, the “Latency to the first response” value (cocaine-seeking behavior; acute pimavanserin 3 mg/kg, n.s. vs. control (14.39 ± 2.41 s)) was 29.83 ± 5.43 s and the “Increase of latency to the first response vs. control” value (cocaine-seeking behavior; repeated pimavanserin 3 mg/kg) was ~ 2.5 fold. For the same molecule, the “Decrease” value (cocaine-seeking behavior; repeated pimavanserin 3 mg/kg twice daily for 10 days, FA day 10, p < 0.05) was ~ 27.1% and the “Latency to the first response” value (cocaine-seeking behavior; repeated pimavanserin 3 mg/kg, p < 0.05 vs. control (14.39 ± 2.41 s)) was 35.25 ± 7.81 s.
